Series [1] addresses T1, 3',5'-cyclic-AMP phosphodiesterase 4B (Homo sapiens, UniProt Q07343). The series can be described thus: Inhibition of PDE4B at 1 uM.
Series [2] addresses T1, 3',5'-cyclic-AMP phosphodiesterase 4B. The series can be described thus: Inhibition of PDE4B.
Series [3] addresses cAMP and cAMP-inhibited cGMP 3',5'-cyclic phosphodiesterase 10A (Homo sapiens, UniProt Q9Y233). The series can be described thus: Inhibition of PDE10.
For series [4], the target named is Dual 3',5'-cyclic-AMP and -GMP phosphodiesterase 11A (Homo sapiens, UniProt Q9HCR9). The series can be described thus: Inhibition of PDE11.
Dual 3',5'-cyclic-AMP and -GMP phosphodiesterase 11A, sequence (Q9HCR9 whole entry): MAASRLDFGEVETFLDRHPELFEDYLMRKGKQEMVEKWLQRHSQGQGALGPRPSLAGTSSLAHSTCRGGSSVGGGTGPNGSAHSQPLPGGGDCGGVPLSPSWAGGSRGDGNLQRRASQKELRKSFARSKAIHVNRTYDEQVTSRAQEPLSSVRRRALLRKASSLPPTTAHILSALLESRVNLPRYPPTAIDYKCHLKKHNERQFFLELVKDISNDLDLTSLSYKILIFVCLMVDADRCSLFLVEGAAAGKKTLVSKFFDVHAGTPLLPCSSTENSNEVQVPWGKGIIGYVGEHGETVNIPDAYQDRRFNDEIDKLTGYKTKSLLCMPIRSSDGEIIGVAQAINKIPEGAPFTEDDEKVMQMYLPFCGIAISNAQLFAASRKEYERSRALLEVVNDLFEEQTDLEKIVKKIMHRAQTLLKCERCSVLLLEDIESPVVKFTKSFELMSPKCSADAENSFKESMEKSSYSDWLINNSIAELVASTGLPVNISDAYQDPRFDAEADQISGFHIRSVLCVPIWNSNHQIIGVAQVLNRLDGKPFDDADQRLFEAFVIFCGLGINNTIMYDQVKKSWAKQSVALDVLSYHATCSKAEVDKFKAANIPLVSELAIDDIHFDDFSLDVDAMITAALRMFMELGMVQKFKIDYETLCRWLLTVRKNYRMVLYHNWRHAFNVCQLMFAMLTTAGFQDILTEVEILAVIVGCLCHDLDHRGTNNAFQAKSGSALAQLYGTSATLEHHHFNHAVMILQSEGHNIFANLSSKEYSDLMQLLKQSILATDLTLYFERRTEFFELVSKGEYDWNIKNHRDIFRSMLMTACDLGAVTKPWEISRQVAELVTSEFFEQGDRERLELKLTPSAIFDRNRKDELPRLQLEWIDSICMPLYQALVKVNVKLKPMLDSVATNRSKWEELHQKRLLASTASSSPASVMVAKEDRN
Series [5] can be described thus: Cmax in rat at 10 mg/kg, po. Format: ADME, organism-based. Further details: dose 10 mg/kg, route oral. The conditions noted are these: in vivo.
Series [6] concerns Rattus norvegicus. The experiment in a line: Antiinflammatory activity in po dosed rat lipopolysaccharide-induced pulmonary inflammation model assessed as inhibition of polymorphonuclear cells. Format: functional.
The species named for series [7] is Homo sapiens. The experiment in a line: Selectivity for PDE4B over PDE11.
The species entered for series [8] is Homo sapiens. The experiment in a line: Selectivity for PDE4B over PDE10.
The next series relates to Cynomolgus monkey. The series can be described thus: AUC in cynomolgus monkey at 30 mg/kg, po. More on the design: dose 30 mg/kg, route oral. The conditions noted are these: in vivo. In kind it is ADME, organism-based, Macaca fascicularis, Plasma.
Series [9] is described as follows: Cmax in cynomolgus monkey at 30 mg/kg, po. To be noted: in vivo. Further details: dose 30 mg/kg, route oral. Format: ADME, organism-based, Macaca fascicularis.
Series [10] concerns Rattus norvegicus. The experiment in a line: Antiinflammatory activity in rat lipopolysaccharide-induced pulmonary inflammation model assessed as inhibition of polymorphonuclear cells at 3 mg/kg, po. In kind it is functional.
For series [11], the system named is Rattus norvegicus. The series can be described thus: Antiinflammatory activity in rat lipopolysaccharide-induced pulmonary inflammation model assessed as inhibition of polymorphonuclear cells at 1 mg/kg, po. In kind it is functional.

T1 sequence (Q07343 whole entry): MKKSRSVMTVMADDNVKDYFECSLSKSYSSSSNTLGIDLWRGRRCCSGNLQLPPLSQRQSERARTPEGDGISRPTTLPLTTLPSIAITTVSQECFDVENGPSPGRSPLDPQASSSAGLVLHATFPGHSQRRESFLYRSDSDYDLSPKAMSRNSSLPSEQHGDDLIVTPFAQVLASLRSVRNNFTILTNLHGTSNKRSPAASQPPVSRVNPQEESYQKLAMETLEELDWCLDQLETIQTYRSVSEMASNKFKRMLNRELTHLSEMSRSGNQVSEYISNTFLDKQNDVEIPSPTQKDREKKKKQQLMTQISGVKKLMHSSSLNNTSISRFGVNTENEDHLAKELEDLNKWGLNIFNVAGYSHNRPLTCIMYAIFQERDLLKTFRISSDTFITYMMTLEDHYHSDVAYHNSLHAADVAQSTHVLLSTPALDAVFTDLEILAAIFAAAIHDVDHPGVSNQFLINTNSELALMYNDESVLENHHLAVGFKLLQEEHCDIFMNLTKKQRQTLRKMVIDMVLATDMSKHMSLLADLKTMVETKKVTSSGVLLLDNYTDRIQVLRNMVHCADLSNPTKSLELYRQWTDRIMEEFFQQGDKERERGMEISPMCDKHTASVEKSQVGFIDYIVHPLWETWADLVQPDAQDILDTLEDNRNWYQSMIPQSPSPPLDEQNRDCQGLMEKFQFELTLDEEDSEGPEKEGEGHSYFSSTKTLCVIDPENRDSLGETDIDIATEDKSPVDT
cAMP and cAMP-inhibited cGMP 3',5'-cyclic phosphodiesterase 10A, sequence (Q9Y233 whole entry): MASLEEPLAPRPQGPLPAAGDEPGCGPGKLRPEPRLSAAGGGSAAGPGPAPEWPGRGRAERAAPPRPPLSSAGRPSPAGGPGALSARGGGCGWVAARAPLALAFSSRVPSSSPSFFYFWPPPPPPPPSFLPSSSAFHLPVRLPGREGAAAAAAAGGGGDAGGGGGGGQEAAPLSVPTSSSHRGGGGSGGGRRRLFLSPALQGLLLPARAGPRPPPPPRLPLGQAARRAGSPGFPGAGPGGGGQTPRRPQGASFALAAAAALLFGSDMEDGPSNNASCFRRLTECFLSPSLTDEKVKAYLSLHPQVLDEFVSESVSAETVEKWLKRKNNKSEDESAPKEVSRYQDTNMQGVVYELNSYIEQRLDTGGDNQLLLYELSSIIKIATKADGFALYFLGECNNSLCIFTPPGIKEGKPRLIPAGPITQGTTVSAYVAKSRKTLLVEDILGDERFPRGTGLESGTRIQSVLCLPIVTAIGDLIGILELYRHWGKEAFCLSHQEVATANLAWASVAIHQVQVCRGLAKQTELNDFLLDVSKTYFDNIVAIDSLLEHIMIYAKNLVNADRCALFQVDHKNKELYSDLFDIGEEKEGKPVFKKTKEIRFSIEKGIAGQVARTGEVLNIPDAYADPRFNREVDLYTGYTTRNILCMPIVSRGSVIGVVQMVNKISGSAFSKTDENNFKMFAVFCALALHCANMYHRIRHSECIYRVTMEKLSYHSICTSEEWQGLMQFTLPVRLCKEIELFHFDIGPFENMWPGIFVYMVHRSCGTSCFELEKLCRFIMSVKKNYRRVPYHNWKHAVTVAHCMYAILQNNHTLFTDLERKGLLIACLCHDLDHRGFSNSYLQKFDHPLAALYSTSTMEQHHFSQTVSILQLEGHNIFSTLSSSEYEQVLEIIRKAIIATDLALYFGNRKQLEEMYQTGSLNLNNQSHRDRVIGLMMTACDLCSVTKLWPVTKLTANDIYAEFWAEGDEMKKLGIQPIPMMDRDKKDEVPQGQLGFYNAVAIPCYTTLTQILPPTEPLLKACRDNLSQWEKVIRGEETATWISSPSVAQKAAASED

A word on the inhibition: it is how much of the control response was suppressed. In the case of `COc1ccc(-c2nc(C(N)=O)c(CN3CCCC3)o2)c2ccc(C(F)(F)F)nc12`, the inhibition in series [1] is 31%.

`COc1ccc(-c2nc(C(N)=O)c(CNC3CCCC3)o2)c2ccc(C(F)(F)F)nc12`: in [1], the inhibition amounted to 39%.

As usually defined, the IC50 is the concentration at which inhibition is half-maximal. `CNCc1oc(-c2ccc(OC)c3nc(C(F)(F)F)ccc23)nc1C(N)=O`: in [2], half-maximal inhibition (IC50) was put at 580 nM.

For `COc1ccc(C(=O)Nc2c(Cl)cncc2Cl)c2ccc(C(F)(F)F)nc12`, the IC50 in [2] was 20 nM; in series [3] it was greater than 10000 nM; in series [4] it was 7300 nM.

Regarding `COc1ccc(-c2nc(C(N)=O)c(C)o2)c2ccc(C(F)(F)F)nc12`, the IC50 in series [2] was 88 nM.

As usually defined, the Cmax is the maximum level reached in the sampled fluid or tissue. The ED50 is the dose at which the effect has come halfway, by size or by number of responders. `COc1ccc(-c2nc(C(=O)N3CCC(O)(c4ccccc4)CC3)c(CN)o2)c2ccc(C(F)(F)F)nc12` showed a Cmax in series [5] of 170 nM. The IC50 came out at 2 nM in series [2], 600 nM in series [3] and 500 nM in series [4]. In addition, the ED50 in the series on Rattus norvegicus [6] was found to be 2 mg/kg.

In series [5], `COc1cc(OC)nc(N2CCN(C(=O)c3nc(-c4ccc(OC)c5nc(C(F)(F)F)ccc45)oc3CN)CC2)n1` returned a Cmax of 230 nM. For the same compound, the IC50 stood at 2.2 nM in [2], 760 nM in [3] and 970 nM in series [4]. For the same compound, the ED50 with Rattus norvegicus [6] is 2 mg/kg.

Regarding `COc1ccc(-c2nc(C(=O)N3CCC4(CC3)C(=O)NCN4c3ccccc3)c(CN)o2)c2ccc(C(F)(F)F)nc12`, the values for the IC50 in series [2], in [3] and in series [4] were 1 nM, 20 nM and 130 nM, respectively. In addition, the figures for the Selectivity ratio in the series listed under Homo sapiens [7] and in the series filed under Homo sapiens [8] were 130 and 20, respectively.

As to `CCN(CC)C(=O)c1nc(-c2ccc(OC)c3nc(C(F)(F)F)ccc23)oc1CN`, it took 62 nM to reach half-maximal inhibition in [2] (IC50).

With `COc1ccc(-c2nc(C(N)=O)c(CN3CCCCC3)o2)c2ccc(C(F)(F)F)nc12`, the inhibition in series [1] amounted to 27%.

Regarding `COc1ccc(-c2nc(CO)c(C)o2)c2ccc(C(F)(F)F)nc12`, the IC50 in [2] was determined as 470 nM.

What is called AUC is the area under the concentration-time curve, a measure of exposure. Broadly, the inhibition in vivo is how much of the control response was suppressed. Compound `COc1ccc(-c2nc(C(=O)N3CCN(c4ncccn4)CC3)c(CN)o2)c2ccc(C(F)(F)F)nc12` displayed an AUC in the series with Cynomolgus monkey of 130 µM·h. The Cmax in [9] turned out to be 13000 nM; in [5], 9500 nM. Besides, the results for the IC50 in [2], in series [3] and in series [4] were 19 nM, 430 nM and 2000 nM, respectively. For the same compound, the inhibition in vivo at 3 mg/kg with Rattus norvegicus [10] was 64%.

In the case of `COc1ccc(-c2nc(C(=O)N3CCN(C(=O)OC(C)(C)C)CC3)c(CN)o2)c2ccc(C(F)(F)F)nc12`, the concentration in [5] peaked (Cmax) at 1400 nM. In addition, the IC50 stood at 4.3 nM in [2], 1100 nM in series [3] and 600 nM in series [4]. Moreover, the inhibition in vivo at 3 mg/kg with Rattus norvegicus [10] came out at 56%.

In the case of `COc1ccc(-c2nc(C(=O)N3CCCCC3)c(CN)o2)c2ccc(C(F)(F)F)nc12`, the IC50 in series [2] amounted to 49 nM.

In series [5], `COc1ccc(-c2nc(C(=O)N3CCN(C(=O)c4ccccn4)CC3)c(CN)o2)c2ccc(C(F)(F)F)nc12` registered a Cmax of 730 nM. In addition, the IC50 in series [2] worked out at 1 nM; in [3], 1900 nM; in series [4], 2100 nM. For the same compound, the Selectivity ratio in the series listed under Homo sapiens [7] and in the series listed under Homo sapiens [8] was 1000 in each case. Moreover, the ED50 with Rattus norvegicus [6] worked out at 0.6 mg/kg.

In series [2], `COc1ccc(-c2nc(C(=O)O)c(C)o2)c2ccc(C(F)(F)F)nc12` gave an IC50 of 390 nM.

As to `COc1ccc(-c2nc(C(N)=O)c(CN)o2)c2ccc(C(F)(F)F)nc12`, the IC50 in [2] came to 24 nM; in [3] it was 2800 nM; in [4], 7600 nM.

In series [5], `CO/N=C(\c1ccccn1)C1CCN(C(=O)c2nc(-c3ccc(OC)c4nc(C(F)(F)F)ccc34)oc2CN)CC1` returned a Cmax of 610 nM. Besides, the IC50 stood at 1.6 nM in series [2], 120 nM in series [3] and 1500 nM in series [4]. The inhibition in vivo at 1 mg/kg in the series on Rattus norvegicus [11] amounted to 45%.

Turning to `COc1ccc(-c2nc(C(N)=O)c(CN(C)C)o2)c2ccc(C(F)(F)F)nc12`, the inhibition in [1] worked out at 40%.

For the compound `COc1ccc(C(=O)Nc2c(Cl)c[n+]([O-])cc2Cl)c2ccc(C(F)(F)F)nc12` [SCH-351591], the IC50 in [2] is 60 nM; in [3] it was greater than 10000 nM; in series [4] it was greater than 10000 nM.

The compound `COc1ccc(-c2nc(C(=O)O)c(CN)o2)c2ccc(C(F)(F)F)nc12` yielded an IC50 in series [2] of 53 nM.

Turning to `COc1ccc(-c2nc(CCl)c(C)o2)c2ccc(C(F)(F)F)nc12`, the IC50 in [2] turned out to be 470 nM.

`COc1ccc(-c2nc(C(=O)N3CCCC3)c(CN)o2)c2ccc(C(F)(F)F)nc12` had an IC50 in [2] of 17 nM.

Compound `COc1ccc(-c2nc(CN)c(C(N)=O)o2)c2ccc(C(F)(F)F)nc12` came in with an IC50 in [2] of 76 nM.

Consider `COc1ccc(-c2nc(CN)c(C)o2)c2ccc(C(F)(F)F)nc12`, for which, in [2], inhibition was half-maximal at 80 nM (IC50).

In turn, `CNC(=O)c1nc(-c2ccc(OC)c3nc(C(F)(F)F)ccc23)oc1CN` came in with a half-inhibitory concentration (IC50) in series [2] of 110 nM.

`CCN(CC)Cc1oc(-c2ccc(OC)c3nc(C(F)(F)F)ccc23)nc1C(N)=O` registered an inhibition in series [1] of 21%.

`COc1ccc(-c2nc(C)co2)c2ccc(C(F)(F)F)nc12` displayed an IC50 in series [2] of 350 nM.

Turning to `COc1ccc(-c2nc(C(=O)N3CCN(C(=O)c4cc(C)[nH]n4)CC3)c(CN)o2)c2ccc(C(F)(F)F)nc12`, the IC50 in [2] was 0.5 nM; in [3], 1500 nM; in series [4] it was 1000 nM. Also, the Selectivity ratio in the series listed under Homo sapiens [7] and in the series filed under Homo sapiens [8] was 1000 in each case.

As for `COc1ccc(-c2nc(C(=O)N3CCN(S(=O)(=O)N(C)C)CC3)c(CN)o2)c2ccc(C(F)(F)F)nc12`, the IC50 worked out at 1.2 nM in series [2], 1700 nM in series [3] and 3300 nM in series [4]. Moreover, the Selectivity ratio in the series listed under Homo sapiens [7] and in the series filed under Homo sapiens [8] was 1000 throughout.

Regarding `COc1ccc(-c2nc(C(=O)N3CCC3)c(CN)o2)c2ccc(C(F)(F)F)nc12`, half-maximal inhibition in series [2] (IC50) required 31 nM.

`CCc1coc(-c2ccc(OC)c3nc(C(F)(F)F)ccc23)n1` registered an IC50 in series [2] of 670 nM.

In series [5], `COc1ccc(-c2nc(C(=O)N3CC[C@@H](NC(=O)OC(C)(C)C)C3)c(CN)o2)c2ccc(C(F)(F)F)nc12` came in with a Cmax of 610 nM. In addition, the concentration for half-maximal inhibition (IC50) is 1.4 nM in series [2], 130 nM in series [3] and 820 nM in series [4]. The ED50 with Rattus norvegicus [6] was 0.2 mg/kg.

Regarding `COc1ccc(-c2nc(C=O)c(C)o2)c2ccc(C(F)(F)F)nc12`, in series [2], the IC50 was 310 nM.

Source of the values: ChEMBL document CHEMBL1139777, “Discovery of a highly potent series of oxazole-based phosphodiesterase 4 inhibitors” (Bioorg Med Chem Lett, 2007).
